Laboratory results: the supplement of paper PMC9780213

What was measured:
Settings in all cases: treatment time: 24 h
U2OS = experiment: cell count relative to DMSO control (panel A, nuclei/RNA/PMG/mitochondria stain) (fraction of control); higher = more cells (less toxicity)
Protocol: (§1)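 U2OS-derived cells in 384-well plates were treated for 24 h with a 7-point 2-fold dilution series (top dose 20 µM for most compounds; final max DMSO 1%), then fixed, stained in four marker panels and imaged on a Cellomics ArrayScan. Cell count per treatment (three replicate plates merged) is given as a fraction of DMSO control. Panel A used parental U2OS, panel B U2OS-mOrange2-Peroxisome, panel C1 U2OS-LMNB1-TUBA1B-ACTB (DRAQ5 nuclei).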

U2OS-LMNB1-TUBA1B-ACTB = experiment: cell count relative to DMSO control (panel C1, DRAQ5/ER stain) (fraction of control); higher = more cells (less toxicity)
Protocol: as §1

U2OS-mOrange2-Peroxisome = experiment: cell count relative to DMSO control (panel B, lysosome/peroxisome/lipid stain) (fraction of control); higher = more cells (less toxicity)
Protocol: as §1

O=C(O)CCCCC(CCSCc1ccccc1)SCc1ccccc1 (configuration not stated) [CPI-613]
cell count
Settings | 0.3125 µM | 0.625 µM | 1.25 µM | 2.5 µM | 5 µM | 10 µM | 20 µM
U2OS | 1.01 | 0.993 | 0.975 | 1.04 | 1.14 | 1.11 | 1.05
U2OS-LMNB1-TUBA1B-ACTB | 1.36 | 1.4 | 1.03 | 1.06 | 1.15 | 1.08 | 1.14
U2OS-mOrange2-Peroxisome | 0.907 | 1.1 | 0.897 | 1.1 | 0.851 | 0.902 | 0.849

C[C@H]1CCC/C=C/[C@@H]2C[C@H](O)C[C@H]2[C@H](O)/C=C/C(=O)O1 [brefeldin-a]
cell count
Settings | 0.3125 µM | 0.625 µM | 1.25 µM | 2.5 µM | 5 µM | 10 µM | 20 µM
U2OS | 0.543 | 0.545 | 0.527 | 0.584 | 0.586 | 0.644 | 0.577
U2OS-LMNB1-TUBA1B-ACTB | 0.698 | 0.697 | 0.661 | 0.616 | 0.632 | 0.584 | 0.529
U2OS-mOrange2-Peroxisome | 0.53 | 0.567 | 0.55 | 0.574 | 0.515 | 0.544 | 0.557

CCCCCCCCCCCCCCCCCCOP(=O)([O-])OC1CC[N+](C)(C)CC1 [perifosine]
cell count
Settings | 0.3125 µM | 0.625 µM | 1.25 µM | 2.5 µM | 5 µM | 10 µM | 20 µM
U2OS | 0.989 | 1.07 | 1.02 | 0.99 | 0.979 | 0.592 | 0.285
U2OS-LMNB1-TUBA1B-ACTB | 1.11 | 1.15 | 1.09 | 0.996 | 1.01 | 0.753 | 0.363
U2OS-mOrange2-Peroxisome | 0.846 | 0.987 | 0.869 | 0.928 | 1.12 | 0.704 | 0.364

Cc1[nH]c2ccccc2c1CCNC(=O)c1cccs1 [CK-636]
cell count
Settings | 0.3125 µM | 0.625 µM | 1.25 µM | 2.5 µM | 5 µM | 10 µM | 20 µM
U2OS | 1.06 | 0.971 | 1.01 | 1.01 | 0.977 | 0.961 | 0.865
U2OS-LMNB1-TUBA1B-ACTB | 1.16 | 1.06 | 1.09 | 1.04 | 0.908 | 0.887 | 0.858
U2OS-mOrange2-Peroxisome | 0.793 | 0.764 | 0.737 | 0.756 | 0.783 | 1.04 | 0.977

CCOc1ccccc1-n1c(C(C)N2CCN(C(=O)COc3ccc(Cl)cc3)CC2)nc2ccccc2c1=O (configuration not stated) [erastin]
cell count
Settings | 0.3125 µM | 0.625 µM | 1.25 µM | 2.5 µM | 5 µM | 10 µM | 20 µM
U2OS | 1.04 | 1.07 | 1.03 | 1.02 | 1.09 | 0.978 | 0.982
U2OS-LMNB1-TUBA1B-ACTB | 1.11 | 1.14 | 1.06 | 1 | 1.11 | 1.03 | 0.905
U2OS-mOrange2-Peroxisome | 0.603 | 0.516 | 0.65 | 0.612 | 0.749 | 0.77 | 0.579

CC(NC(=O)c1ccccc1/N=C/c1c(O)ccc2ccccc12)c1ccccc1 (configuration not stated) [sirtinol]
cell count
Settings | 0.3125 µM | 0.625 µM | 1.25 µM | 2.5 µM | 5 µM | 10 µM | 20 µM
U2OS | 0.858 | 0.782 | 0.659 | 0.462 | 0.195 | 0.192 | 0.17
U2OS-LMNB1-TUBA1B-ACTB | 0.886 | 0.842 | 0.727 | 0.552 | 0.338 | 0.357 | 0.367
U2OS-mOrange2-Peroxisome | 0.607 | 0.507 | 0.491 | 0.365 | 0.37 | 0.373 | 0.339

CCN(CC)CCCC(C)Nc1c2ccc(Cl)cc2nc2ccc(OC)cc12 (configuration not stated) [mepacrine]
cell count
Settings | 0.3125 µM | 0.625 µM | 1.25 µM | 2.5 µM | 5 µM | 10 µM | 20 µM
U2OS | 1.02 | 0.981 | 0.98 | 0.921 | 0.925 | 0.85 | 0.616
U2OS-LMNB1-TUBA1B-ACTB | 1.13 | 1.01 | 1.03 | 1.07 | 1.08 | 1.05 | 0.727
U2OS-mOrange2-Peroxisome | 0.781 | 0.889 | 0.854 | 0.763 | 0.778 | 0.733 | 0.449

N.N.[Cl][Pt][Cl] [cisplatin]
cell count
Settings | 0.15625 µM | 0.3125 µM | 0.625 µM | 1.25 µM | 2.5 µM | 5 µM | 10 µM
U2OS | 1.07 | 1.04 | 1.12 | 1.03 | 1.02 | 1.02 | 0.948
U2OS-LMNB1-TUBA1B-ACTB | 1.01 | 1.06 | 1.12 | 1.03 | 0.956 | 0.991 | 1.01
U2OS-mOrange2-Peroxisome | 1.19 | 0.977 | 0.858 | 0.908 | 0.967 | 1.05 | 0.956

CC[C@H]1CN2CCc3cc(OC)c(OC)cc3[C@@H]2C[C@@H]1C[C@H]1NCCc2cc(OC)c(OC)cc21 [emetine]
cell count
Settings | 0.3125 µM | 0.625 µM | 1.25 µM | 2.5 µM | 5 µM | 10 µM | 20 µM
U2OS | 1.08 | 1.01 | 1.01 | 0.994 | 1.02 | 1.05 | 0.753
U2OS-LMNB1-TUBA1B-ACTB | 1.11 | 1.08 | 1 | 1.06 | 1.02 | 0.916 | 0.899
U2OS-mOrange2-Peroxisome | 1.04 | 1.29 | 1.13 | 1.04 | 1.06 | 1.15 | 1.08

O=C(Oc1cc(S(=O)(=O)c2ccccc2)ccc1[N+](=O)[O-])c1ccc(Cl)cc1
cell count
Settings | 0.3125 µM | 0.625 µM | 1.25 µM | 2.5 µM | 5 µM | 10 µM | 20 µM
U2OS | 1.05 | 1.08 | 1.11 | 1.06 | 0.997 | 0.944 | 0.966
U2OS-LMNB1-TUBA1B-ACTB | 1.05 | 1.06 | 0.969 | 0.953 | 0.983 | 1.13 | 0.989
U2OS-mOrange2-Peroxisome | 0.726 | 0.838 | 0.873 | 1.02 | 1.08 | 1.26 | 0.846

Fc1cc(F)c2c(c1)[C@H]1C=CC[C@H]1C(c1cccnc1)N2 (some centres not stated) [golgicide-A]
cell count
Settings | 0.3125 µM | 0.625 µM | 1.25 µM | 2.5 µM | 5 µM | 10 µM | 20 µM
U2OS | 0.981 | 1 | 0.929 | 1.06 | 1.03 | 0.826 | 0.566
U2OS-LMNB1-TUBA1B-ACTB | 0.952 | 1.05 | 0.982 | 1.1 | 1.14 | 1.05 | 0.778
U2OS-mOrange2-Peroxisome | 0.814 | 0.73 | 0.804 | 0.719 | 0.89 | 0.916 | 0.833

C/C1=C/C(=O)O[C@@H]2C[C@@H](CC[C@H](C)/C=C\C=C\CC1)O[C@@](O)([C@@H]1CSC(=O)N1)C2 [latrunculin-a]
cell count
Settings | 0.000781 µM | 0.0015625 µM | 0.003125 µM | 0.00625 µM | 0.0125 µM | 0.025 µM | 0.05 µM
U2OS | 0.372 | 0.438 | 0.369 | 0.312 | 0.278 | 0.194 | 0.121
U2OS-LMNB1-TUBA1B-ACTB | 0.337 | 0.521 | 0.464 | 0.461 | 0.379 | 0.304 | 0.196
U2OS-mOrange2-Peroxisome | 0.66 | 0.625 | 0.479 | 0.467 | 0.312 | 0.155 | 0.0636
